# In article PMC3527734, “Peripheral injections of melanin-concentrating hormone receptor 1 antagonist S38151 decrease food intake and body weight in rodent obesity models” (Frontiers in Endocrinology, 2012):
# Where a SMILES comes first, the peptide text is derived from it.
# Test system: Wistar rats
# Test: NEI-MCH-induced food intake after acute i.c.v. injection
# Format: in vivo, rat
# Source text: Wistar and Zucker fa/fa rats were anesthetized with Forène (Abbott Laboratories, Queenborough, UK), and a stainless steel guide cannula (Plastic Products Co, Roanoke, Va, USA) was stereotaxically implanted into the right lateral ventricle at the following coordinates relative to the bregma: AP −0.8 mm, L = −1.2 mm, and V = −3.5 mm. After a 7-day recovery period, during which the animals were handled each day to minimize non-specific stress, they were lightly anesthetized with Forène. Human/mouse/rat MCH (1 μg in a volume of 2.5 μ L, Bachem, Voisins-le-Bretonneux, France) or an equivalent volume of artificial cerebrospinal fluid (CSF) was then injected through the intraventricular cannula. Immediately after injection, the animals quickly recovered and were returned to their home cages. Only those animals responding within 2 h with a robust increase in food intake, indicating correct cannula placement, were used in the experiments described below. Two days after MCH injection, the rats were randomly assigned to different groups and studied in one of the following protocols.
# Wistar rats were habituated for at least 2 weeks before experiment to a diet of food pellets (6 mm diameter) of the following composition: 67.5% food flour, 26.5% sucrose, 5% gum tragacanth, and 1.25% magnesium stearate (A03 UAR, Orge, France). The food pellets were present in a metal food hopper attached to the inside of each cage. At 09:00 on the day of study, the animals were lightly anesthetized with Forene® (Abbott, France). Thereafter, rats were injected intra-cerebroventricular (i.c.v.) with vehicle (artificial CSF) or with S38151 [0.5, 5, 10, 20, 30, or 50 nmol/kg ([…], 14, 28, 42, or 70 μg/kg, respectively)] in a volume of 2.5 μL, 20 min prior to the injection of human/rat NEI-MCH [5 nmol/kg (18.7 μg/kg) in a volume of 2.5 μL].
# Food intake was measured at different times after peptide injection. Food spillage was carefully quantified during each time period, and intake measurements were corrected for this loss. At the end of the experiments, the animals were euthanized and the positions of the cannulae were assessed by the injection of 100 μ L Evans blue dye (2 mg/mL) followed by the visual examination of brain slices. Only data obtained from animals with correctly positioned cannulae were included in the final data analysis.
# Figure 3 The effect of S38151 on NEI-MCH-induced food intake in Wistar rats after acute central administration. Satiated rats were injected (i.c.v.) at the beginning of the light phase with 5 μg NEI-MCH, 5 μg NEI-MCH + differing doses of S38151 (0.5–50 nmol/kg), or an equivalent volume of artificial cereblospinal fluid vehicle (5 μL). Cumulative food intake was measured at 1, 2, 4, 6, and 24 h post-injection.
smiles,measurement,setting,value
"CSCC[C@@H]1NC(=O)[C@@H](NC(=O)c2ccc(NC(=N)N)cc2)CSSC[C@@H](C(=O)N[C@@H](Cc2c[nH]c3ccccc23)C(=O)O)NC(=O)[C@@H]2CCCN2C(=O)[C@H](CCCNC(=N)N)NC(=O)[C@H](Cc2ccc(O)cc2)NC(=O)[C@H](C(C)C)NC(=O)[C@H](CCCNC(=N)N)NC(=O)[C@H](CC(C)C)NC1=O [S38151, p-guanidinobenzoyl-(Des-Gly10)-MCH (7–17)] (HELM PEPTIDE1{[N=C(N)Nc1ccc(C(=O)[*:2])cc1].C.M.L.R.V.Y.R.P.C.W}$PEPTIDE1,PEPTIDE1,2:R3-10:R3$$$V2.0; C-terminus assumed)",food intake during the entire 24-h period versus control group,"NEI-MCH alone or any combination of NEI-MCH and S38151, i.c.v.",not significantly altered
same,inhibition of NEI-MCH-induced food intake,S38151 50 nmol/kg i.c.v.,Nearly complete inhibition
same,inhibition of the increase in food intake produced by NEI-MCH,"S38151 0.5-50 nmol/kg i.c.v. 20 min before NEI-MCH, first and second hours",statistically significant dose-related inhibition
